Assay results taken from paper PMC10291549, “Reaction Behavior of [1,3-Diethyl-4,5-diphenyl-1H-imidazol-2-ylidene] Containing Gold(I/III) Complexes against Ingredients of the Cell Culture Medium and the Meaning on the Potential Use for Cancer Eradication Therapy” (Journal of Medicinal Chemistry, 2023).
Where two headings read alike, the source gives them in different places.

Legend:
A2780 cells = assay type: cell-based, human
A549 cells = assay type: cell-based; details: 72 h incubation; mean ± SD of two or three independent experiments; read-out: metabolic activity IC50, A549
IGROV1-CSC cells = assay type: cell-based; details: 72 h incubation; mean ± SD of two or three independent experiments; read-out: metabolic activity IC50, IGROV1-CSC
[1] = system: A2780cis cells (Cisplatin-resistant); assay type: cell-based, human; details: 72 h incubation; mean ± SD of two or three independent experiments; read-out: metabolic activity IC50, A2780cis
[2] = HPLC reactivity study in chloride containing ACN/water; assay type: physicochemical; details: for conversion to 5 / formation of 8: t0h (1.5 min); for conversion to 5: ACN/water 50/50, 6.0 g/L NaCl + 0.4 g/L KCl, 0.5 mM complex, rt
[3] = system: MCF-7TamR cells (Tamoxifen-resistant subline); assay type: cell-based, human; details: 72 h incubation; mean ± SD of two or three independent experiments; read-out: metabolic activity IC50, MCF-7TamR
[4] = HPLC degradation study in ACN/RPMI 1640 cell culture medium; details: for conversion to 5: ACN/RPMI 1640 50/50 (without FCS)
IGROV1 cells = assay type: cell-based; details: 72 h incubation; mean ± SD of two or three independent experiments; read-out: metabolic activity IC50, IGROV1
[5] = system: A549-R cells (Taxol/Paclitaxel-resistant subclone); assay type: cell-based; details: 72 h incubation; mean ± SD of two or three independent experiments; read-out: metabolic activity IC50, A549-R
MCF-7 cells = assay type: cell-based, human; details: 72 h incubation; mean ± SD of two or three independent experiments; read-out: metabolic activity IC50, MCF-7
[6] = system: K562-R cells (Doxorubicin-resistant subclone); assay type: cell-based; details: 72 h incubation; mean ± SD of two or three independent experiments; read-out: metabolic activity IC50, K562-R
K562 cells = assay type: cell-based; details: 72 h incubation; mean ± SD of two or three independent experiments; read-out: metabolic activity IC50, K562
[7] = HPLC reactivity study with GSH in ACN/water; assay type: physicochemical; details: 20 equiv GSH; for substitution to (NHC)Au(I)-GSH adduct 12: t0h (1.5 min)
Protocol: (§1) All nucleophiles (chloride, amino acids, and GSH) were separately reacted with 5–11 in ACN/water = 50/50 (v/v) mixtures at a complex concentration 0.5 mM. This solvent composition was chosen to prevent precipitation of the complex and the formed degradation products.
(§2) Amino acids, as well as GSH, were used in 20-fold excess, as realized at a complex concentration of 10 μM in the cell culture medium. Thereto, the respective complex, dissolved in ACN (1 mM), was combined with the same amount of aqueous solution of the nucleophile (20 mM).
(§3) The mixture was then incubated for 24 h at rt and monitored at various time points via HPLC using an RP-C18 column and gradient elution (70/30 (v/v) to 90/10 (v/v)) of ACN/water (0.1% trifluoroacetic acid (TFA)).
(§4) Experiments in ACN/water: 1.0 mM solutions of the respective complex were prepared in ACN and diluted with HPLC-grade water (50/50, (v/v)) containing the double-concentrated amount of respective amino acid (20 mM), GSH (20 mM), sodium ascorbate (20 mM), or NADPH (20 mM). As a chloride source, an aqueous solution of KCl 0.8 g/L and NaCl 12 g/L was used. In each case, a final complex concentration of 0.5 mM was achieved. The solutions were incubated for 24 h at rt. For the experiments with RPMI 1640, the aqueous phase was replaced by a cell culture medium.
(§5) Samples (20 μL each) were taken at appropriate time points (t = 0 (1.5 min), 0.5, 1, 1.5, 2, 8, 12, and 24 h) and analyzed with a Shimadzu prominence HPLC system. The mobile phase consisted of ACN (HPLC-grade) and water (HPLC-grade) with 0.1% TFA. To achieve a separation of the compounds, gradient elution from (70/30 (v/v) to 90/10 (v/v)) of ACN/water (0.1% trifluoroacetic acid (TFA)) was used with a flow rate of 1 mL/min at an oven temperature of 35 °C. All solvents have been degassed before use. The injection volume was 20 μL, and the detection wavelength was set at 235 nm, to detect the gold complexes and the amino acids in the chromatogram.

[8] = system: SV-80 lung fibroblast cells; assay: Modified MTT assay in noncancerous cells; assay type: cell-based
[9] = HPLC reactivity study with non-thiol containing amino acids in ACN/water; assay type: physicochemical; details: for formation of 8: t24h, 0.5 mM
Protocol: as §1, §2, §3, §4, §5

[10] = FCS influence on stability of 7 in RPMI 1640 (protein binding, HPLC); assay type: in vitro ADME; details: 4 h, 37 °C
Protocol: The complex (conc. 30 μM) dissolved in RPMI 1640 medium supplemented with 10% FCS was incubated for 4 h at 37 °C in the dark. Subsequently, the proteins were precipitated with ACN and the supernatant was dried by lyophilization. The remaining complexes were extracted from the lyophilizate with DCM. The organic layer was evaporated, and the residue was finally dissolved in 1 mL of ACN. This solution was then analyzed by HPLC as described above.
To 11 mL of RPMI 1640 including 10% FCS, 11 μL of a freshly prepared 3 mM DMF solution of 7 was added. The solution was then incubated for 4 h at 37 °C in the dark. Proteins were precipitated with 33 mL of ACN. The mixture was cooled to −30 °C and stored for 2 h at −20 °C. Subsequently, the supernatant was separated by centrifugation (3000 rpm), collected, and dried by lyophilization. The lyophilizate was extracted three times with 5 mL of DCM and finally dried under reduced pressure. The residue was taken up in 1 mL of ACN, and 30 μL was analyzed by the HPLC method described above. Peak area was used for quantification. The calibrations of 5, 7, and 8 were obtained by injecting 30 μL of the respective solution of pure substances in ACN at a concentration of 1–30 μM (R^2 > 0.99).

[11] = 72 h incubation, mean ± SD of two or three independent experiments, read-out: metabolic activity IC50, A2780
[12] = t0h, chloride containing ACN/water 50/50, 0.5 mM
[13] = t24h, chloride containing ACN/water 50/50, 0.5 mM
[14] = t0h, ACN/RPMI 1640 50/50, 0.5 mM
[15] = t24h, ACN/RPMI 1640 50/50, 0.5 mM
[16] = chloride containing ACN/water 50/50, 0.5 mM

Molecule	IC50 (A2780 cells; [11]) [nM]	IC50 (A549 cells) [nM]	IC50 (IGROV1-CSC cells) [nM]	IC50 [1] [nM]	IC50 [3] [nM]	IC50 (IGROV1 cells) [nM]	IC50 [5] [nM]	IC50 (MCF-7 cells) [nM]	IC50 [6] [nM]	IC50 (K562 cells) [nM]	formation of 8 (ligand scrambling / reduction) [2, 13] [%]	formation of 8 [4, 14] [%]	formation of 8 [4, 15] [%]	further results
Bis[1,3-diethyl-4,5-diphenyl-1H-imidazol-2-ylidene]diiodidogold(III) Hexafluorophosphate [Complex 11]	280 ± 60	250 ± 20	2450 ± 970	20 ± 10	200 ± 70	1280 ± 930	270 ± 40	190 ± 50	2260 ± 1080	970 ± 260				substitution to 9 [2, 12]: 0.4%; time to complete conversion to 8 ([4]; ACN/RPMI 1640 50/50, 0.5 mM): ≤ 8 h
CCn1c(-c2ccccc2)c(-c2ccccc2)n(CC)[c]1=[Au+]([Cl])([Cl])=[c]1n(CC)c(-c2ccccc2)c(-c2ccccc2)n1CC.F[P-](F)(F)(F)(F)F [Complex 9, Bis[1,3-diethyl-4,5-diphenyl-1H-imidazol-2-yliden]dichloridogold(III) Hexafluorophosphate]	250 ± 40	180 ± 10	1740 ± 190	50 ± 20	260 ± 50	700 ± 380	210 ± 20	240 ± 50	1430 ± 290	550 ± 160	12.5	5.0	36.3	
Bromido[1,3-diethyl-4,5-diphenyl-1H-imidazol-2-ylidene]gold(I) [Complex 6]	9380 ± 800	> 10000	8780 ± 600	2870 ± 330	4640 ± 440	5780 ± 900	> 10000	4540 ± 520	> 10000	> 10000				conversion to 5 [2]: quantitatively; substitution to (NHC)Au(I)-GSH adduct 12 ([7]; ACN/water 50/50, 0.5 mM): quantitatively; conversion to 5 ([4]; t0h, 0.5 mM): immediately converted; metabolic activity (remaining) in SV-80 cells ([8]; at 10 μM, mean of three independent experiments): 20%
CC(=O)OC[C@H]1O[C@@H]([S-])[C@H](OC(C)=O)[C@@H](OC(C)=O)[C@@H]1OC(C)=O.CCP(CC)CC.[Au+] [Auranofin, reference compound]		4260 ± 450			1140 ± 460		4420 ± 440	3150 ± 360	3750 ± 380	3660 ± 270				
N.N.[Cl][Pt][Cl] [Cisplatin, reference compound]	6650 ± 1420	6670 ± 630	3760 ± 400	9800 ± 640	4130 ± 590	2840 ± 760	6990 ± 570	7180 ± 1280	9930 ± 770	7910 ± 780				
Iodido[1,3-diethyl-4,5-diphenyl-1H-imidazol-2-ylidene]gold(I) [Complex 7]	1430 ± 400	1120 ± 170	470 ± 130	400 ± 60	1630 ± 790	1940 ± 350	1210 ± 360	480 ± 80	1530 ± 1040	720 ± 300	18.9	0.8	23.1	ratio of 7/8 ([9]; 20 equiv arginine (Arg), after 30 min, stable until 24 h): 90/10; reaction with amino acids ([9]; 20 equiv non-thiol containing amino acid, ACN/water 50/50): did not react; formation of 8 ([9]; 20 equiv glutamic acid (Glu), ACN/water 50/50): 31.6%; formation of 8 ([9]; 20 equiv methionine (Met), ACN/water 50/50): 27.5%; formation of 8 ([9]; pure ACN/water 50/50): 31.2%; concentration in the free fraction after incubation of 7 ([10]; 7 (30 μM) in RPMI 1640 + 10% FCS, dark, protein precipitation with ACN, from HPLC peak areas): 780 nM; protein-bound fraction ([10]; 7 and its degradation products in RPMI 1640 + 10% FCS): about 50%; conversion to 5 [2]: 13.3%; formation of 8 [2, 16]: 3.6%; quantity of 5 formed [2, 13]: stayed constant; start of ligand scrambling ([7]; time-dependent analysis): 1 h; substitution to (NHC)Au(I)-GSH adduct 12 ([7]; ACN/water 50/50, 0.5 mM): 9.7%; formation of 8 ([7]; t24h, ACN/water 50/50, 0.5 mM): 9.8%; proportion of 12 ([7]; t24h, ACN/water 50/50, 0.5 mM): 4.7%; amount of 5 formed ([4]; during 24 h, ACN/RPMI 1640 50/50): remained constant; conversion to 5 ([4]; t0h, 0.5 mM): 14.3%; formation of GSH-adduct 12 [4, 15]: No GSH-adduct 12 could be detected; metabolic activity (remaining) in SV-80 cells ([8]; at 1.5 μM): 77%
CCn1c(-c2ccccc2)c(-c2ccccc2)n(CC)[c]1=[Au+]([Br])([Br])=[c]1n(CC)c(-c2ccccc2)c(-c2ccccc2)n1CC.F[P-](F)(F)(F)(F)F [Complex 10, Bis[1,3-diethyl-4,5-diphenyl-1H-imidazol-2-ylidene]dibromidogold(III) Hexafluorophosphate]	290 ± 50	200 ± 20	1290 ± 230	100 ± 40	290 ± 180	440 ± 190	250 ± 40	220 ± 70	1590 ± 300	490 ± 120	5.1	9.3	71.1	formation of 8 [2, 16]: 2.2%; substitution to 9 [2, 12]: 24.0%; substitution to 9 [2, 13]: 54.4%; formation of 9 (Br/Cl exchange) [4, 14]: 42.3%; amount of 9 [4, 15]: 18.2%; remaining amount of the complex itself [4, 15]: 10.7%
CCn1c(-c2ccccc2)c(-c2ccccc2)n(CC)[c]1=[Au][S]C[C@H](NC(=O)CC[C@H](N)C(=O)O)C(=O)NCC(=O)O [Complex 12]														IC50 relative to 5 (and 6) in A2780 cells, times higher / fold less active (A2780 cells): about 2 fold; IC50 relative to 5 (and 6) in A2780 cells, times higher / fold less active (A2780 cells; listed as (NHC)Au(I)-GSH): 2 fold; IC50 (A2780 cells; preliminary experiment, read-out: cell growth IC50, A2780): 15900 nM
